Data as given in article PMC11436758, “Computer-aided drug design to generate a unique antibiotic family” (Nature Communications, 2024).
Values after ≈ are worked out from the molar mass of the structure shown.

What was measured:
Format in all cases: cell-based
S. aureus (MSSA) = test: MIC, clinical and laboratory strains
Method: (§1) The medium employed for the assay was Mueller Hinton II Broth (MHB II; Becton-Dickinson, Sparks, MD, USA). Agar plates used for the organisms were trypticase soy agar plus 5% sheep blood (BD; Sparks, MD, USA). MIC assay plates were prepared using the CLSI broth microdilution procedure. Automated liquid handlers (Multidrop 384, Biomek 2000 and Biomek FX) were used to conduct serial dilutions and liquid transfers. A standardized inoculum of each organism was prepared per CLSI methods. Suspensions were prepared to equal a 0.5 McFarland standard, followed by a 1:20 dilution in test media. The inocula were dispensed into sterile reservoirs divided by length (Beckman Colter) and the Biomek 2000 was used to inoculate the plates. Daughter plates were placed on the Biomek 2000 work surface in reverse orientation so that inoculation took place from low to high drug concentration. The Biomek 2000 delivered 10 μL of the diluted suspension into each well. These inoculations yielded a final cell concentration in the daughter plates of ~5 × 10^5 colony-forming units/mL in each well. The wells of the daughter plates ultimately contained 185 μL of broth, 5 μL of drug solution, and 10 μL of bacterial inoculum. Plates were covered with a sterile lid on the top plate, placed in plastic bags, and incubated at 35 °C for ~18 h. The microplates were viewed from the bottom using a plate viewer and the MIC was read. The MIC was recorded as the lowest concentration of drug that inhibited visible growth of the organism.

S. aureus (VISA) = test: MIC, clinical and laboratory strains
Method: as §1

S. aureus (MRSA) = test: MIC, clinical and laboratory strains
Method: as §1

[1] = test system: 102 ATCC strains and clinical isolates of Staphylococcus, Streptomyces, and Enterococcus; test: MIC panel summary over all strains; settings: of 102 strains
Method: We also sought to determine if DNM0547 was bacteriostatic or bactericidal. Time kill experiments were carried out using increasing doses of DNM0547 against two different strains of MRSA.
as §1

In the case of `CC[C@H]1OC(=O)[C@H](C)[C@@H](O[C@H]2C[C@@](C)(OC)[C@@H](O)[C@H](C)O2)[C@H](C)[C@@H](O[C@@H]2O[C@H](C)C[C@H](N(C)C)[C@H]2O)[C@](C)(O)C[C@@H](C)C(=O)[C@H](C)[C@@H](O)[C@]1(C)O` [erythromycin], the MIC (S. aureus (MSSA); S. aureus (MSSA) 2127) is reported as 0.12 µg/mL (≈ 0.164 µM), the MIC (S. aureus (MSSA); S. aureus (MSSA) 6167) is reported as greater than 16 µg/mL and the MIC (S. aureus (MSSA); S. aureus (MSSA) 6168) is reported as 0.25 µg/mL (≈ 0.341 µM). The MIC (S. aureus (MSSA); S. aureus (MSSA) 6170) was 0.5 µg/mL (≈ 0.681 µM), the MIC (S. aureus (MSSA); S. aureus (MSSA) 6316) was greater than 16 µg/mL and the MIC (S. aureus (MSSA); S. aureus (MSSA) 6317) was 0.5 µg/mL (≈ 0.681 µM). The MIC (S. aureus (MSSA); S. aureus (MSSA) 6318) was greater than 16 µg/mL, the MIC (S. aureus (MSSA); S. aureus (MSSA) 6499) was greater than 16 µg/mL and the MIC (S. aureus (MSSA); S. aureus (MSSA) 6500) was 8 µg/mL (≈ 10.9 µM). For the same compound, the MIC (S. aureus (MSSA); S. aureus (MSSA) 6502) was 0.25 µg/mL (≈ 0.341 µM), the MIC (S. aureus (VISA); S. aureus (VISA) 1724) was 0.25 µg/mL (≈ 0.341 µM) and the MIC (S. aureus (VISA); S. aureus (VISA) 2012) was greater than 16 µg/mL. It also gave an MIC (S. aureus (VISA); S. aureus (VISA) 2013) greater than 16 µg/mL, an MIC (S. aureus (VISA); S. aureus (VISA) 2014) greater than 16 µg/mL and an MIC (S. aureus (VISA); S. aureus (VISA) 2015) greater than 16 µg/mL. For the same compound, the MIC (S. aureus (VISA); S. aureus (VISA) 2016) was greater than 16 µg/mL, the MIC (S. aureus (VISA); S. aureus (VISA) 2017) was 0.25 µg/mL (≈ 0.341 µM) and the MIC (S. aureus (VISA); S. aureus (VISA) 2018) was greater than 16 µg/mL. The MIC (S. aureus (VISA); S. aureus (VISA) 2019) was greater than 16 µg/mL, the MIC (S. aureus (VISA); S. aureus (VISA) 2123) was greater than 16 µg/mL and the MIC (S. aureus (VISA); S. aureus (VISA) NRS1/1723) was greater than 16 µg/mL. The MIC (S. aureus (MRSA); S. aureus (MRSA) 2167) was greater than 16 µg/mL, the MIC (S. aureus (MRSA); S. aureus (MRSA) 2168) was greater than 16 µg/mL and the MIC (S. aureus (MRSA); S. aureus (MRSA) 2169) was greater than 16 µg/mL. For the same compound, the MIC (S. aureus (MRSA); S. aureus (MRSA) 2170) was greater than 16 µg/mL, the MIC (S. aureus (MRSA); S. aureus (MRSA) 2171) was greater than 16 µg/mL and the MIC (S. aureus (MRSA); S. aureus (MRSA) 2293) was greater than 16 µg/mL. It also gave an MIC (S. aureus (MRSA); S. aureus (MRSA) 2294) greater than 16 µg/mL, an MIC (S. aureus (MRSA); S. aureus (MRSA) 2295) greater than 16 µg/mL and an MIC (S. aureus (MRSA); S. aureus (MRSA) 2296) of 0.5 µg/mL (≈ 0.681 µM). It also gave an MIC (S. aureus (MRSA); S. aureus (MRSA) 2297) greater than 16 µg/mL, an MIC (S. aureus (MRSA); S. aureus (MRSA) 3880) greater than 16 µg/mL and an MIC (S. aureus (MRSA); S. aureus (MRSA) 5373) greater than 16 µg/mL. The MIC (S. aureus (MRSA); S. aureus (MRSA) 5666) was greater than 16 µg/mL, the MIC (S. aureus (MRSA); S. aureus (MRSA) 5702) was greater than 16 µg/mL and the MIC (S. aureus (MRSA); S. aureus (MRSA) 5999) was greater than 16 µg/mL. The MIC (S. aureus (MRSA); S. aureus (MRSA) 6165) was greater than 16 µg/mL, the MIC (S. aureus (MRSA); S. aureus (MRSA) 6169) was greater than 16 µg/mL and the MIC (S. aureus (MRSA); S. aureus (MRSA) 6174) was greater than 16 µg/mL. The MIC (S. aureus (MRSA); S. aureus (MRSA) 6311) was greater than 16 µg/mL, the MIC (S. aureus (MRSA); S. aureus (MRSA) 6312) was greater than 16 µg/mL and the MIC (S. aureus (MRSA); S. aureus (MRSA) 6313) was greater than 16 µg/mL. For the same compound, the MIC (S. aureus (MRSA); S. aureus (MRSA) 6315) was greater than 16 µg/mL, the MIC (S. aureus (MRSA); S. aureus (MRSA) 6320) was greater than 16 µg/mL and the MIC (S. aureus (MRSA); S. aureus (MRSA) 6498) was 0.5 µg/mL (≈ 0.681 µM). For the same compound, the MIC (S. aureus (MRSA); S. aureus (MRSA) 6501) was greater than 16 µg/mL, the MIC (S. aureus (MRSA); S. aureus (MRSA) 6505) was greater than 16 µg/mL and the MIC (S. aureus (MRSA); S. aureus (MRSA) 6506) was 0.5 µg/mL (≈ 0.681 µM). The MIC (S. aureus (MRSA); S. aureus (MRSA) NRS382/2119) was greater than 16 µg/mL, the MIC (S. aureus (MRSA); S. aureus (MRSA) NRS383/2120) was greater than 16 µg/mL and the MIC (S. aureus (MRSA); S. aureus (MRSA) NRS384/2011) was greater than 16 µg/mL. The “number of strains tested with MIC not ≤ 2 μg/mL” value [1] was 76.
